For the assay, the system named is A549. In words: A549 assay: screening of cancer cell growth inhibiting compound. The class given is cell-based. The conditions noted are these: Homo sapiens. As to the method:
Screening of Cancer Cell Growth Inhibiting Compound
A cell suspension solution (RERF-LC-AI, A549: 1×10^4/ml, MRC5: 3×10^4/ml and 1×10^5/ml) adjusted to an appropriate concentration with D-MEM (hereinafter, referred to as a culture solution and manufactured by Nacalai Tesque Inc.) supplemented with 10% FBS (HyClone) was added to the wells of a 96-well plate (hereinafter, well plate) at a rate of 100 μL/well and incubated in a CO2 incubator at 37° C. for a day. […] Next, cells were added to each well of the well plate prepared and the above compound dilution solution was added at a rate of 100 μL/well to obtain 200 μL/well. Thereafter, the cells were incubated in the CO2 incubator at 37° C. for further three days. To each well of the well plate, 10 μL of a WST-8 kit (Kishida Chemical Co., Ltd.) solution for counting the number of cells was added and a color reaction was performed in the CO2 incubator for 1 to 4 hours. After the absorbance at 450 nm (reference wavelength: 620 nm) was measured by a microplate reader, suppressing action of the test substance was calculated based on the absorbance value in the absence of a test substance.

The mark [1] stands for this setting: 72 h, A549 cells, three days, WST-8, read-out: A549 IC50.
The mark [2] stands for this setting: A549, 72 h, read-out: A549 IC50 (μM).

Molecules are shown by their SMILES. Where two headings read alike, the source gives them in different places.

In US20120059162A1, “FUSED IMIDAZOLE DERIVATIVE HAVING TTK INHIBITORY ACTION” (Oncotherapy Science, Inc., priority 2009, published 2012) one finds IC50 data, which are given here for 46 molecules.

Take `CC(C)CNc1nc(-c2ccc(O)c(Cl)c2)cn2c(-c3ccc(C(=O)NC4CC4)cc3)cnc12` [Example 1-120]: the IC50 under setting [1] lay in the range of 1 to 10 µM. `CC(C)CNc1nc(-c2cccc(NC(=O)[C@@H](N)CO)c2)cn2c(-c3ccc(C(=O)NC4CC4)cc3)cnc12` [Example 1-159]: the IC50 under setting [1] lay in the range of 1 to 10 µM. Still for that read-out and setting: to `CC(C)CNc1nc(-c2ccccc2N)cn2c(-c3ccc(C(=O)NC4CC4)cc3)cnc12` [Example 1-123] belongs 0.05 to 0.5 µM; to `CC(C)CNc1nc(-c2ccc3occc(=O)c3c2)cn2c(-c3ccc(C(=O)NC4CC4)cc3)cnc12` [Example 1-110], 0.5 to 1 µM. Take `CC(C)CNc1nc(-c2ccc(NC(=O)N3CCOCC3)cc2)cn2c(-c3ccc(C(=O)NC4CC4)cc3)cnc12` [Example 1-161]: the half-maximal inhibitory concentration (IC50) under setting [1] was in the range of 1 to 10 µM. `CC(C)CNc1nc(-c2ccc(C(N)=O)cc2)cn2c(-c3ccc(C(=O)NC4CC4)cc3)cnc12` [Example 1-151]: the 50% inhibitory concentration (IC50) under setting [1] is 0.05 to 0.5 µM. In the case of `CC(C)CNc1nc(-c2ccc(N)cc2)cn2c(-c3ccc(C(=O)NC4CC4)cc3)cnc12` [Example 1-114], under setting [1], the IC50 lay in the range of 0.05 to 0.5 µM. With `CC(C)CNc1nc(-c2ccc(C(=O)NCCS(C)(=O)=O)cc2)cn2c(-c3ccc(C(=O)NC4CC4)cc3)cnc12` [Example 1-149], the concentration for half-maximal inhibition (IC50) under setting [1] lay within 1 to 10 µM.

On to `CC(C)CNc1nc(-c2cccc(NC(=O)N3CCOCC3)c2)cn2c(-c3ccc(C(=O)NC4CC4)cc3)cnc12` [Example 1-155], for which the 50% inhibitory concentration (IC50) under setting [1] was 1 to 10 µM. Consider `CC(C)CNc1cc(-c2ccccc2)nn2c(-c3ccc(C(=O)NC4CC4)cc3)cnc12` [Example 2-7], for which, under setting [2], the IC50 lay in the range of 0.5 to 1 µM.

`CC(C)CNc1nc(-c2cccc(C(=O)NCCS(C)(=O)=O)c2)cn2c(-c3ccc(C(=O)NC4CC4)cc3)cnc12` [Example 1-141]: the IC50 under setting [1] is 1 to 10 µM. For the molecule `CC(C)CNc1nc(-c2ccc(CNS(C)(=O)=O)cc2)cn2c(-c3ccc(C(=O)NC4CC4)cc3)cnc12` [Example 1-119], under setting [1], the IC50 fell in the range of 0.5 to 1 µM. Consider `CC(C)CNc1nc(C2=CCCC2)cn2c(-c3ccc(C(=O)NC4CC4)cc3)cnc12` [Example 1-108], for which, under setting [1], the IC50 was in the range of 1 to 10 µM. As for `CC(C)CNc1nc(-c2ccsc2)cn2c(-c3ccc(C(=O)NC4CC4)cc3)cnc12` [Example 1-103], under setting [1], the half-inhibitory concentration (IC50) fell in the range of 0.5 to 1 µM. For `CC(C)CNc1nc(-c2ccc(NC(=O)NCc3ccco3)cc2)cn2c(-c3ccc(C(=O)NC4CC4)cc3)cnc12` [Example 1-118], under setting [1], the IC50 fell in the range of 0.5 to 1 µM. With `CC(C)CNc1nc(-c2cccc(C(=O)NCCCN3CCN(C)CC3)c2)cn2c(-c3ccc(C(=O)NC4CC4)cc3)cnc12` [Example 1-138], the IC50 under setting [1] was 1 to 10 µM. Regarding `CCCNc1nccn2c(-c3ccc(C(=O)NC4CC4)cc3)cnc12` [Example 1-37], under setting [2], the IC50 was in the range of 1 to 10 µM. On to `CC(C)CNc1nc(-c2ccncc2)cn2c(-c3ccc(C(=O)NC4CC4)cc3)cnc12` [Example 1-111], for which the IC50 under setting [1] was 0.05 to 0.5 µM. `CC(C)CNc1nc(-c2cccnc2)cn2c(-c3ccc(C(=O)NC4CC4)cc3)cnc12` [Example 1-107]: the IC50 under setting [1] lay within 0.5 to 1 µM.

For `CC(=O)Nc1ccc(-c2cn3c(-c4ccc(C(=O)NC5CC5)cc4)cnc3c(NCC(C)C)n2)cc1` [Example 1-163], under setting [1], the IC50 lay within 0.5 to 1 µM. Regarding `CC(C)CNc1nc(-c2cccc(C(=O)NCCCN(C)C)c2)cn2c(-c3ccc(C(=O)NC4CC4)cc3)cnc12` [Example 1-122], the IC50 under setting [1] was in the range of 1 to 10 µM. For the molecule `O=C(NC1CC1)c1ccc(-c2cnc3c(NCC4CCOCC4)nccn23)cc1` [Example 1-1, N-cyclopropyl-4-(8-((tetrahydro-2H-pyran-4-yl)methylamino)imidazo[1,2-a]pyrazin-3-yl)benzamide], the half-inhibitory concentration (IC50) under setting [2] is 1 to 10 µM. For `CC(C)CNc1nc(-c2ccccc2)cn2c(-c3ccc(C(=O)NC4CC4)cc3)cnc12` [Example 1-101], the IC50 under setting [2] lay within 0.5 to 1 µM. For the molecule `CC(C)CNc1nc(-c2cccc(NC(=O)N3CCN(C)CC3)c2)cn2c(-c3ccc(C(=O)NC4CC4)cc3)cnc12` [Example 1-154], under setting [1], the IC50 fell in the range of 1 to 10 µM. `CC(C)CNc1nc(-c2cccc(N)c2)cn2c(-c3ccc(C(=O)NC4CC4)cc3)cnc12` [Example 1-124]: the IC50 under setting [1] is 0.5 to 1 µM. The same measure, in the same setting: to `CC(C)CNc1nc(-c2cccc(C#N)c2)cn2c(-c3ccc(C(=O)NC4CC4)cc3)cnc12` [Example 1-106] belongs 0.5 to 1 µM; to `CC(C)CNc1nc(-c2cccc(C(=O)N3CCN(C)CC3)c2)cn2c(-c3ccc(C(=O)NC4CC4)cc3)cnc12` [Example 1-144], 1 to 10 µM; to `COCCNC(=O)c1cccc(-c2cn3c(-c4ccc(C(=O)NC5CC5)cc4)cnc3c(NCC(C)C)n2)c1` [Example 1-140], 0.05 to 0.5 µM. With `CC(C)CNc1nc(-c2ccc(OCCN3CCOCC3)cc2)cn2c(-c3ccc(C(=O)NC4CC4)cc3)cnc12` [Example 1-117], the half-inhibitory concentration (IC50) under setting [1] was in the range of 1 to 10 µM.

Regarding `CC(C)CNc1nc(-c2ccc(C(=O)c3ccccc3)cc2)cn2c(-c3ccc(C(=O)NC4CC4)cc3)cnc12` [Example 1-125], the concentration for half-maximal inhibition (IC50) under setting [1] fell in the range of 1 to 10 µM. On the same count and under the same terms, to `N#Cc1ccc(-c2cn3c(-c4ccc(C(=O)NC5CC5)cc4)cnc3c(NCC3CCOCC3)n2)cn1` [Example 1-244] belongs 0.05 to 0.5 µM; to `CC(=O)Nc1cccc(-c2cn3c(-c4ccc(C(=O)NC5CC5)cc4)cnc3c(NCC(C)C)n2)c1` [Example 1-157], 0.5 to 1 µM; to `CC(C)CNc1nc(-c2cccc(NCCCN)c2)cn2c(-c3ccc(C(=O)NC4CC4)cc3)cnc12` [Example 1-166], 1 to 10 µM. For `CC(C)CCNc1nccn2c(-c3ccc(C(=O)NC4CC4)cc3)cnc12` [Example 1-43], the half-inhibitory concentration (IC50) under setting [2] lay in the range of 1 to 10 µM. For `CC(C)CNc1nc(-c2ccc(S(=O)(=O)C(C)C)cc2)cn2c(-c3ccc(C(=O)NC4CC4)cc3)cnc12` [Example 1-116], under setting [1], the IC50 is 0.5 to 1 µM. For `O=C(NC1CC1)c1ccc(-c2cnc3c(NCC4CCOCC4)nc(C4=CCNCC4)cn23)cc1` [Example 1-247], under setting [1], the IC50 is 1 to 10 µM. In the case of `CC(C)CNc1nc(-c2ccc(C(=O)N3CCOCC3)cc2)cn2c(-c3ccc(C(=O)NC4CC4)cc3)cnc12` [Example 1-153], the IC50 under setting [1] fell in the range of 1 to 10 µM. Consider `N#Cc1ccc(-c2cn3c(-c4ccc(C(=O)NC5CC5)cc4)cnc3c(NCC3CCOCC3)n2)cc1F` [Example 1-246], for which the concentration for half-maximal inhibition (IC50) under setting [1] lay within 0.05 to 0.5 µM.

Regarding `CC(C)CNc1nc(-c2cccc(CN3CCOCC3)c2)cn2c(-c3ccc(C(=O)NC4CC4)cc3)cnc12` [Example 1-127], under setting [1], the IC50 lay within 1 to 10 µM. As to `CC(C)CNc1nc(-c2ccc(NC(=O)N3CCN(C)CC3)cc2)cn2c(-c3ccc(C(=O)NC4CC4)cc3)cnc12` [Example 1-160], under setting [1], the half-inhibitory concentration (IC50) is 1 to 10 µM. On to `O=C(NC1CC1)c1ccc(-c2cnc3c(NCC4CCOCC4)nc(-c4ccsc4)cn23)cc1` [Example 1-177], for which, under setting [1], the IC50 is 0.05 to 0.5 µM.

For `C/C=C/c1cn2c(-c3ccc(C(=O)NC4CC4)cc3)cnc2c(NCC2CCOCC2)n1` [Example 1-243], under setting [1], the IC50 is 0.5 to 1 µM. As to `CC(C)CNc1nc(CCc2ccc(C(=O)O)cc2)cn2c(-c3ccc(C(=O)NC4CC4)cc3)cnc12` [Example 1-175], the IC50 under setting [1] lay in the range of 0.05 to 0.5 µM. With `O=C(NC1CC1)c1ccc(-c2cnc3c(NCC4CCOCC4)nc(-c4ccncc4)cn23)cc1` [Example 1-179], the concentration for half-maximal inhibition (IC50) under setting [1] fell in the range of 0.05 to 0.5 µM. The same measure, in the same setting: to `N#Cc1ccc(-c2cn3c(-c4ccc(C(=O)NC5CC5)cc4)cnc3c(NCC3CCOCC3)n2)c(N)c1` [Example 1-245] belongs 0.05 to 0.5 µM. Same read-out and setting: to `CC(C)CNc1nc(-c2ccc(NCCCN)cc2)cn2c(-c3ccc(C(=O)NC4CC4)cc3)cnc12` [Example 1-169] belongs 1 to 10 µM.
